Assay results reported in patent US12018195B2, “Light-selective particles, related methods and related applications” (priority 2014, dated 2024).

Tested on: macrophage cells
From the text: Positive control includes only growth media (FIG. A).
Positive control includes only growth media.

`CC(=O)[O-].CC(=O)[O-].[Zn+2]` [Zn acetate] was tested. Which “cytotoxic effect on macrophage cells” value did it give?
The value was “toxic impact”.
